Measured values from ChEMBL document CHEMBL1201862, “PubChem BioAssay data set” (2004).
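48-hour exposure; five concentrations; linearly interpolated endpoints. GI50 is the concentration that inhibits growth by half.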 Calls of active or inactive are those of the source. No stated cut-off is given here; in the data, active = GI50 up to about 1.1 µM and inactive = higher.

Tests used:
Test in all cases: DTP human tumour cell line panel, 48 h
[1] = tested on: BT-549
[2] = tested on: COLO 205
[3] = tested on: DU-145
[4] = tested on: HOP-62
[5] = tested on: HT-29
[6] = tested on: KM12
[7] = tested on: M14
[8] = tested on: MDA-MB-231
[9] = tested on: Malme-3M
[10] = tested on: OVCAR-4
[11] = tested on: SF-268
[12] = tested on: SF-539
[13] = tested on: SK-MEL-5
[14] = tested on: SK-OV-3
[15] = tested on: SNB-19
[16] = tested on: SR
[17] = tested on: T47D
[18] = tested on: TK-10
[19] = tested on: NCI-H226

Row | SMILES | GI50 [1] | GI50 [2] | GI50 [3] | GI50 [4] | GI50 [5] | GI50 [6] | GI50 [7] | GI50 [8] | GI50 [9] | GI50 [10] | GI50 [11] | GI50 [12] | GI50 [13] | GI50 [14] | GI50 [15] | GI50 [16] | GI50 [17] | GI50 [18] | GI50 [19]
1 | Nc1ccc(-c2nc3ccccc3s2)cc1Br | > 56.8 µM (inactive) | > 100 µM (inactive) | > 100 µM (inactive) | 29.9 µM (inactive) | > 100 µM (inactive) | > 92.9 µM (inactive) | 97.9 µM (inactive) | 52.6 µM (inactive) | > 100 µM (inactive) | > 100 µM (inactive) | 61 µM (inactive) | > 51.3 µM (inactive) | > 100 µM (inactive) | > 71.4 µM (inactive) | 60.4 µM (inactive) | > 94.8 µM (inactive) | 58.1 µM (inactive) | 0.0141 µM (active) | 
2 | CCOP(=O)(CN1CCNCCN(CP(=O)(OCC)OCC)CC1)OCC | > 100 µM (inactive) | > 100 µM (inactive) | > 100 µM (inactive) | > 100 µM (inactive) | > 100 µM (inactive) | > 100 µM (inactive) | > 100 µM (inactive) | > 100 µM (inactive) |  | > 100 µM (inactive) | > 100 µM (inactive) | > 100 µM (inactive) | > 100 µM (inactive) | > 100 µM (inactive) | > 100 µM (inactive) |  | > 100 µM (inactive) | > 100 µM (inactive) | > 100 µM (inactive)
3 | CCOc1cc(NC(C)=O)ccc1C(=O)NN1C(=O)C(Oc2ccccc2)C1c1ccc(O)c(OC)c1 (configuration not stated) | 28.4 µM (inactive) | 30.3 µM (inactive) | 78 µM (inactive) | 42.7 µM (inactive) | 36.7 µM (inactive) | 39.1 µM (inactive) | 52.1 µM (inactive) | 34 µM (inactive) |  | 31.3 µM (inactive) |  | 28.1 µM (inactive) | 19.1 µM (inactive) | > 100 µM (inactive) | > 100 µM (inactive) | 25.8 µM (inactive) | 14.4 µM (inactive) | 40.8 µM (inactive) | 34.2 µM (inactive)
4 | Cc1cc2nc(C=C(C(F)(F)F)C(F)(F)F)oc2cc1C | 2.67 µM (inactive) | 0.199 µM (active) | 5.64 µM (inactive) | 3.83 µM (inactive) | 3.04 µM (inactive) | > 10 µM (inactive) | 2.51 µM (inactive) | 2.88 µM (inactive) | 1.97 µM (inactive) | 3.18 µM (inactive) | 3.42 µM (inactive) | 2.88 µM (inactive) | > 10 µM (inactive) | > 10 µM (inactive) | 3.45 µM (inactive) | 2.22 µM (inactive) | 2.94 µM (inactive) | 2.45 µM (inactive) | 
5 | CN(C)c1ccc(/C=C(\NC(=O)c2ccccc2)C(=O)NC(Cc2c[nH]c3ccccc23)C(=O)O)cc1 (configuration not stated) | > 100 µM (inactive) | > 100 µM (inactive) | > 100 µM (inactive) | 34.4 µM (inactive) | > 100 µM (inactive) | > 100 µM (inactive) | > 100 µM (inactive) | > 100 µM (inactive) | > 100 µM (inactive) | > 100 µM (inactive) | > 100 µM (inactive) | > 100 µM (inactive) | > 100 µM (inactive) | > 100 µM (inactive) | > 100 µM (inactive) |  | > 100 µM (inactive) | > 100 µM (inactive) | > 100 µM (inactive)
6 | C=C1C(C2(C)C(OC(C)=O)CC(=O)OC(C)(COC(C)=O)C2CC(=O)OC)C(OC=O)C(OC(=O)C(O)C(C)CC)C2(C)C(c3ccoc3)CC(=O)C12O (configuration not stated) | 4.33 µM (inactive) | 3.66 µM (inactive) | 5.46 µM (inactive) | 7.43 µM (inactive) | 3.42 µM (inactive) | 3.23 µM (inactive) | > 23.8 µM (inactive) | 4.69 µM (inactive) |  | 6.28 µM (inactive) | 3.72 µM (inactive) | 4.42 µM (inactive) | 2.94 µM (inactive) | 0.78 µM (active) |  | 5.36 µM (inactive) | > 57.7 µM (inactive) | 17.4 µM (inactive) | 16.7 µM (inactive)
7 | Cc1ncc(CSC(=N)N)n1Cc1ccccc1 | > 100 µM (inactive) | 33.1 µM (inactive) | 22.5 µM (inactive) | > 100 µM (inactive) | 55.8 µM (inactive) | > 100 µM (inactive) | 48.1 µM (inactive) | > 100 µM (inactive) | 54.5 µM (inactive) | 83 µM (inactive) | > 100 µM (inactive) | 43.6 µM (inactive) | 82.6 µM (inactive) | > 100 µM (inactive) | > 100 µM (inactive) |  | 26.1 µM (inactive) | 25.8 µM (inactive) | > 100 µM (inactive)
8 | Nc1ncnc2c1ncn2[C@@H]1C[C@@H]1CO | > 100 µM (inactive) |  |  | > 100 µM (inactive) | > 100 µM (inactive) | > 100 µM (inactive) |  | > 100 µM (inactive) | > 100 µM (inactive) |  |  | > 100 µM (inactive) |  |  | > 100 µM (inactive) | > 100 µM (inactive) | > 100 µM (inactive) |  | > 100 µM (inactive)
9 | Cc1ccc(S(=O)(=O)CNC(=O)C(O)(O)C(F)(F)F)cc1 | > 100 µM (inactive) | > 100 µM (inactive) | > 100 µM (inactive) | > 100 µM (inactive) | > 100 µM (inactive) | > 100 µM (inactive) | > 100 µM (inactive) | > 100 µM (inactive) | > 100 µM (inactive) | > 100 µM (inactive) | > 100 µM (inactive) | > 100 µM (inactive) | > 100 µM (inactive) | > 100 µM (inactive) | > 100 µM (inactive) | > 100 µM (inactive) | > 100 µM (inactive) | > 100 µM (inactive) | 
10 | CC1(C)OCC2(CO1)CSCCCSCC1(COC(C)(C)OC1)CSCCCSC2 | > 100 µM (inactive) | > 100 µM (inactive) | > 100 µM (inactive) | > 100 µM (inactive) | > 100 µM (inactive) | > 100 µM (inactive) | > 100 µM (inactive) | > 100 µM (inactive) |  | > 100 µM (inactive) | > 100 µM (inactive) | > 100 µM (inactive) | > 100 µM (inactive) | > 100 µM (inactive) | > 100 µM (inactive) | > 100 µM (inactive) | > 100 µM (inactive) | > 100 µM (inactive) | 
11 | CCOC(=O)c1nnsc1NC(=O)Nc1ccc(Cc2ccc(NC(=O)Nc3snnc3C(=O)OCC)cc2)cc1 | > 100 µM (inactive) | > 100 µM (inactive) | 32.8 µM (inactive) | 32.7 µM (inactive) | 61 µM (inactive) | 55.1 µM (inactive) | > 100 µM (inactive) | 28.2 µM (inactive) | 37.2 µM (inactive) | 35.6 µM (inactive) | > 100 µM (inactive) |  | 29.6 µM (inactive) | 21.8 µM (inactive) | 39.1 µM (inactive) |  | 45.8 µM (inactive) | > 100 µM (inactive) | 31.9 µM (inactive)
12 | C[C@@H](NC(C#N)c1ccco1)c1ccccc1 (some centres not stated) | > 100 µM (inactive) |  | > 100 µM (inactive) | > 100 µM (inactive) | > 100 µM (inactive) | > 100 µM (inactive) | > 100 µM (inactive) |  | > 100 µM (inactive) |  | > 100 µM (inactive) | > 100 µM (inactive) | > 100 µM (inactive) | > 100 µM (inactive) | > 100 µM (inactive) | > 100 µM (inactive) | > 100 µM (inactive) | > 100 µM (inactive) | > 100 µM (inactive)
